# Patent US11590155B2, “Substituted nucleosides, nucleotides and analogs thereof” (priority 2014, dated 2023)
# Test system: Ebola
# Assay: microbe, parasite or virus in culture
# Type: cell-based
# Details: Zaire ebolavirus, HeLa, read-out: EC50 against Ebola
row,Compound,EC50 [nM]
1,Nc1ccn([C@@H]2O[C@@](CO)(CCl)[C@@H](O)[C@H]2F)c(=O)n1 [compound 315],< 25000
2,[N-]=[N+]=NC[C@]1(CO)O[C@@H](n2ccc(N)nc2=O)[C@H](F)[C@@H]1O [Compound 106],< 2000
3,[N-]=[N+]=N[C@]1(CO)O[C@@H](n2ccc(N)nc2=O)[C@H](F)[C@@H]1O [compound 332],< 2000
